# Structures can show the parent of a compound that is named as a salt.
# Experiments:
# [1] = tested on: cell-free HIV; test: microbe, parasite or virus in culture; assay type: cell-based; conditions: Human immunodeficiency virus 1, Erythrocyte, 100 min
# [2] = tested on: cell-associated HIV; test: microbe, parasite or virus in culture; assay type: cell-based, HIVIIIB; conditions: Human immunodeficiency virus 1, Erythrocyte
# [3] = tested on: red blood cells; conditions: mouse, in vivo
# [4] = tested on: red blood cells; conditions: mouse, in vivo; remark: listed apart in the source
# [5] = tested on: R17; test: R17 inactivation by Compound 1 in packed red blood cells (Example 2); assay type: cell-based, bacteriophage R17
# Protocol: Another experiment was performed to test the inactivation ability of a novel compound, Compound 1. A 1:1000 dilution of R17 (stock titer was 11.9 logs) was prepared in 25 ml packed red blood cells. To each of 5 tubes was added 5 ml of this R17-packed red blood cell solution. Compound 1 was then dissolved in saline to a final concentration of 3 mg/ml. The compound in solution was added to the […] as follows: the first tube, the control tube, received saline only; the second tube received 10 μg/ml of Compound 1 in saline; the third tube received 30 μg/ml of Compound 1 in saline; the forth tube received 100 μg/ml Compound 1 in saline and the final tube received 300 μg/ml of Compound 1 in saline. The tubes were mixed and then incubated at 4° C. overnight. […] Concentrations above 30 μg/ml inactivated approximately 4 logs of R17 with a starting titer of 10 logs of R17.
# [6] = tested on: R17
# [7] = tested on: red cells; conditions: photo treatment; cited from earlier work
# [8] = tested on: R17; assay type: cell-based, bacteriophage R17
# [9] = tested on: red blood cells
# [10] = tested on: R17; test: Kinetics of R17 inactivation by QM with NAC quench (Example 3); conditions: for Log Titer: NAC/no QM, no NAC/no QM 8.80
compound,measurement,setting,value
"CCN(CCCl)CCCNc1c2ccc(Cl)cc2nc2ccc(OC)cc12.Cl.Cl [ICR-170, N-(2-chloroethyl)-N-ethyl-N'-(6-chloro-2-methoxy-9-acridinyl)-1,3-propanediamine dihydrochloride]",log reduction at 10 µg/mL,[1],0.6
same,log reduction at 20 µg/mL,[1],1.3
same,log reduction at 40 µg/mL,[1],2.3
same,log reduction at 80 µg/mL,[1],4
same,log reduction at 10 µg/mL,[2],0.5
same,log reduction at 20 µg/mL,[2],1.2
same,log reduction at 40 µg/mL,[2],2
same,log reduction at 80 µg/mL,[2],2
same,LOSS PER DAY,[3],2.71%
same,RECOVERY,[3],86.0 ± 6.6
same,"% RECOVERY, HIGH",[4],90.4
same,"% RECOVERY, LOW",[4],93.1
"COc1c2occc2c(CN(CCCl)CCCl)c2ccc(=O)oc12 [Compound 1, 5-[N,N-bis(2-chloroethyl)amino]methyl-8-methoxypsoralen hydrochloride]",R17 inactivation activity,[5]; 10-300 μg/ml in packed red blood cells,showed R17 inactivation activity
same,R17 inactivated,"[5]; concentrations above 30 μg/ml, 4° C. overnight, starting titer 10 logs",approximately 4 logs
CCN(CC)CCCC(C)Nc1c2ccc(Cl)cc2nc2ccc(OC)cc12 (centres unmarked) [quinacrine],light-dependent kill of R17,[6],no light-dependent kill
CN(C)c1ccc2nc3ccc(=[N+](C)C)cc-3sc2c1 [methylene blue],ATP of photo treated red cells,[7],loss of ATP
same,IgG binding of photo treated red cells,[7],binding of autologous immunoglobulin (IgG) to the red cell surface
same,ion permeability of photo treated red cells,[7],enhanced ion permeability
"O=C(O)CCCc1ccc(N(CCCl)CCCl)cc1 [Chlorambucil, chlorambucil]",R17 inactivation,[8],≤ 0.4 logs
same,R17 inactivation (words),[8],little or no inactivation
same,IgG binding of red cells,[9],did not alter
"CC(=O)N[C@@H](CS)C(=O)O [NAC, N-acetyl-cysteine]",R17 kill by NAC alone,[10],does not kill R17
same,protection against QM inactivation,[10]; NAC added before QM,"substantial, but not complete protection against QM inactivation"
same,Log Titer,[10]; dilute at end,8.35
same,Log Titer,[10]; dilute,8.73
same,quenching of QM activity,[10]; combination of NAC and dilution,almost complete quenching of QM activity

# — patent publication US6177441A, “Treating red blood cell solutions with anti-viral agents” (Cerus Corporation, priority 1998, dated 2001)
